The results in this text go back to patent US11969402B2, “Compositions and methods for skin rejuvenation” (THE JOHNS HOPKINS UNIVERSITY, priority 2019, dated 2024).

One assay relates to Aldh1a2, Aldh1a3. As to the kind of experiment: qRT-PCR of Aldh1a2 and Aldh1a3 in mouse wounds. In kind it is in vivo. How it is done:
Wound Induced Hair Neogenesis (WIHN). All experiments were followed with the present inventors' WIHN protocol^1,9. Briefly, hair was shaved and a 1.2 cm^2 full-thickness skin on the backs of 21-day old (telogen) male and female mice was removed by sterile scissors. A single treatment of RA (30 μl) (0.1 μg per mouse) (Millipore Sigma, R2625) and BMS493 (30 μl) (0.1 μg per mouse) (Cayman Chemical, #17418) was applied topically onto open wound on WD1 of Tlr3^−/− and WT mice, respectively. Poly (I:C) (50 μl) (5 μg per mouse) (Invivogen, tlrl-pic) was injected under the healed scab on WD3 of WT mice as described before^9,34. On WD20-24, numbers of regenerated hair follicles were visualized and quantified in the re-epithelialized skin by non-invasive confocal scanning laser microscopy (CSLM) (Caliber I.D., VIVASCOPE 1500) as published^1,9. As a vehicle (Control), ethanol (EtOH), dimethylsulfoxide (DMSO), or PBS was treated for RA, BMS493, and Poly (I:C), respectively.
RNA isolation and quantitative real-time PCR (qRT-PCR). For cells, total RNA was isolated from cultured keratinocytes using RNeasy Mini Kit (Qiagen, Valencia, CA, #74106) and treated with DNase I (Qiagen, #79254) to eliminate genomic DNA. For tissue, total RNA was isolated by following the manual of Direct-zol™ RNA MiniPrep Plus kit (Zymo Research, R2073). The purity and concentration of RNAs were analyzed using a NanoDrop2000c (Thermo Fisher Scientific, ND-2000c). Following reverse transcriptase reactions using high-capacity RNA to cDNA kit (Life Technologies), qRT-PCR was performed to measure target genes using TaqMan probes and Fast reaction master mix reagents (Life Technologies). Relative expression of mRNAs was analyzed by the cycle of threshold (Ct) value of target genes and quantified by normalizing to ribosomal protein large P0 (RPLP0) for human keratinocytes and to β-Actin for mouse keratinocytes or tissues as housekeeping genes using the ΔΔCt method^48.
On the technique in general: Quantitative PCR measures a nucleic acid by following its amplification.

Assay [1] has as its system wound tissues of Tlr3−/− mice. As to the kind of experiment: Microarray gene ontology analysis of wound tissue. In kind it is in vivo, mouse. The conditions noted are these: Tlr3−/− mice treated with RA. From the text:
Microarray analysis. RNA isolated from keratinocytes with or without Poly (I:C) (GSE92646) and mouse wound tissues from wild type (C57BL/6NJ) and Tlr3^−/− with BMS493 and RA were submitted to the JHMI Deep Sequencing & Microarray core for Affymetrix® Human Exon 1.0ST and mouse microarray chip according to manufacturer's protocols. Raw gene expression signals in the form of Affymetrix CEL files were extracted and normalized with Partek® Genomics Suite™ software using the Robust Multichip Analysis (RMA) algorithm. Genes were ranked according to fold change of the intervention, and referred to as top or bottom induced if they are at the highest fold change (top) or lowest fold change (bottom). The significance of gene expression was measured by student's t-test analysis. These datasets generated during the current study are available in the NCBI GEO repository as listed above.

Assay [2] deals with keratinocytes of Tlr3−/− mice. As to the kind of experiment: Western blot of stem cell markers in keratinocytes of Tlr3-/- mice. The conditions noted are these: keratinocytes or whole skin from Tlr3−/− mice. The assay is classed as cell-based, mouse. How it is done: Adult keratinocytes isolation and cultures. For human keratinocytes, 3-mm skin biopsies were taken from areas of the occipital scalp through above IRB protocols using enzyme digestion method as described in the literature^30,31. For mouse keratinocytes, tails of adult mice were used and followed by the same protocol of human keratinocytes. Briefly, the skin fragments were incubated in 0.4% dispase II solution overnight at 4° C., allowing separation of epidermis from dermis. Then epidermis was incubated with 0.25% trypsin-EDTA (Lonza, Walkersville, MD) to isolate keratinocytes for 5 min at 37° C. Adult keratinocytes were maintained in KGM including defined growth factors (KGM-GOLD Bullet kit, #192060) (Lonza) and supplemented with 10 μM of ROCK inhibitor (Y-27632) (Cayman Chemical, #10005583) until use^32. For all in vitro experiments, primary keratinocytes were passaged at least once to eliminate contaminating other cells isolated from epidermis and used at passage 2-4 for human and passage 1-2 for mouse keratinocytes.
BMS493 treatment. BMS493 pan-RARs antagonist (1 μM) was pre-treated into keratinocytes for an hour and cells were incubated with RA (0.1 μM and 0.5 μM for human and mouse keratinocytes, respectively) or Poly (I:C) (0.1 μg per ml for both human and mouse keratinocytes) for 48 hrs. At the end of the experiment, cells were harvested for RNA and protein extraction to do further analysis including qRT-PCR and western blot.
Western blot analysis. Human and mouse keratinocytes were disrupted in M-PER lysis buffer (Thermo Fisher Scientific, #78501) containing protease inhibitors (Thermo Fisher Scientific, #87786) using ultrasonic homogenizer (20% power with 5 times every 2 seconds) to extract proteins. Then, protein concentrations were determined by BCA method (Thermo Fisher Scientific, #23225). Western blot procedures were followed by the protocol of NuPAGE system (Thermo Fisher Scientific). […] The signal intensity of protein was quantified using Image Lab software (Bio-Rad). […]
For orientation: Immunoblotting shows a protein as a band on a membrane.

On to “Polyinosinic-polycytidylic acid [Poly (I:C)]”, for which the “Aldh1a3 and Aldh1a2 induction in early wounds” value in the assay with Aldh1a2, Aldh1a3 (Tlr3−/− mice) is recorded as “neither is induced”. Besides, in the assay on Aldh1a2, Aldh1a3 (WT mice), the “Aldh1a2 transcription during wound healing” value is “did not show a similar pattern” and the “Aldh1a3 transcription during wound healing” value is “induced”.

Turning to `CC1=C(/C=C/C(C)=C/C=C/C(C)=C/C(=O)O)C(C)(C)CCC1` [RA, all-trans-retinoic acid], the “gene ontology categories in microarray analysis” value in assay [1] was “substantial enrichment of gene ontology categories pertaining to development and morphogenesis”. Moreover, the “levels of Krt19, Krt15 and activated β-catenin protein” value in assay [2] is recorded as “increased”.
